Measured values reported in patent publication US12102648B2, “Orally-bioavailable nucleoside analogs” (priority 2021, dated 2024).
Like-named read-outs stand apart in the source and are kept apart here.

Test: in vitro
Type: in vitro ADME
Details: human
Method: The bidirectional permeability of compounds across the Caco-2 cell monolayer was assessed. The Caco-2 model is a widely used in vitro model for small intestinal absorption and potential for efflux.
Cell culture. Caco-2 cells were grown in DMEM supplemented with 10% fetal bovine serum (FBS), 1% Penicillin-Streptomycin and 1% MEM NEAA. The cells were incubated at 37° C., 5% CO2/95% air and saturated humidity. After reaching 80-90% confluency, the cells were gently detached with trypsin. Cells at passage 39 were seeded on the 24-well BD insert system at the density of 8×10^4 cells/cm^2 and cultured for 19 days with medium changed every 2-3 days. Measure the transepithelial electrical resistance (TEER) value of each well. The wells can be used only when their TEER values are greater than 600 Ohms/cm^2.
Transport assay. After removing the cell culture medium from the 24-well insert plate, the cells were rinsed with warm transport buffer. Appropriate dosing and receiving solutions were applied to the donor and receiver chambers to initiate the transport assay in apical to basolateral (A to B) or basolateral to apical (B to A) directions ([…] for apical and basolateral wells, respectively). Duplicate wells in each direction were used for the test compound and control compound. The plate was incubated in CO2 incubator at 37° C., with 5% CO2/95% air and saturated humidity without shaking. The sample after 10-minute incubation was used as the T0 sample, and the sample after 90-minute incubation was used as the T90 sample. To and T90 samples were collected from the donor and receiver side of each well at the designed timepoint, mixed with the transport buffer and acetonitrile/MeOH (1:1, v/v) and the internal standard for LC/MS/MS analysis. All samples were vortexed and centrifuged at 4000 rpm at 4° C. for 15 minutes, diluted with pure water and stored at 4° C. before bioanalysis by LC/MS/MS.
Sample analysis. The concentrations of test compounds and control compounds in Caco-2 cells were quantitatively determined by LC/MS/MS method after protein precipitation.
Calculations. The apparent permeability (Papp, cm/s), efflux ratio (ER) and recovery parameters were calculated for Caco-2 drug transport assay using the following equations:
[formula] [formula] where VR is the solution volume in the receiver chamber (0.4 mL on the apical side, 1.2 mL on the basolateral side); Area is the surface area for the insert membrane, i.e., 0.3 cm^2 for the area of the monolayer; Time is incubation time, expressed in seconds, i.e., 5400 s (90 min) for the current experiment; Co is the initial concentration of test compound or peak area ratio of control compounds in the donor chamber (μM); VD is the volume in the donor chambers (0.4 mL on the apical side, 1.2 mL on the basolateral side); CD and CR are the final concentrations of test compounds or peak area ratio of control compounds in donor and receiver chambers, respectively.
Compounds with Papp<1.0 are classified as low permeability, Papp between 1-10 are classified as medium permeability, and Papp≥10 are classified as high permeability. An efflux ratio (ER)>2 indicates the compounds are potential substrates for intestinal cell efflux transporters.

[1] = Caco-2 monolayer, apical to basolateral, 90-minute incubation, read-out: Papp, A-B
[2] = Caco-2 monolayer, basolateral to apical, 90-minute incubation, read-out: Papp, B-A
[3] = Caco-2 monolayer, ER>2 indicates potential efflux transporter substrate, read-out: ER (efflux ratio)

| SMILES | Papp A→B at 90 min (Caco-2) [×10⁻⁶ cm/s] | Papp B→A at 90 min (Caco-2) [×10⁻⁶ cm/s] | efflux ratio at 90 min (Caco-2) | Papp A→B at 90 min [1] [×10⁻⁶ cm/s] | Papp B→A at 90 min [2] [×10⁻⁶ cm/s] | efflux ratio at 90 min [3] |
| --- | --- | --- | --- | --- | --- | --- |
| CNc1nc(N)nc2c1ncn2[C@@H]1O[C@H](COC(=O)C(C)C)[C@@H](O)[C@@]1(C)F [Compound 3, ((2R,3R,4R,5R)-5-(2-amino-6-(methylamino)-9H-purin-9-yl)-4-fluoro-3-hydroxy-4-methyltetrahydrofuran-2-yl)methyl isobutyrate] | 1.8 | 3.5 | 2 |  |  |  |
| N#C[C@@]1(c2ccc3c(N)ncnn23)O[C@H](COP(=O)(O)OCCCCCCCCCCCCCCCC(=O)O)[C@@H](O)[C@H]1O [Compound 8, 16-(((((2R,3S,4R,5R)-5-(4-aminopyrrolo[2,1-f][1,2,4]triazin-7-yl)-5-cyano-3,4-dihydroxytetrahydrofuran-2-yl)methoxy)(hydroxy)phosphoryl)oxy)hexadecanoic acid] | 0.2 | 0.5 | 2.4 |  |  |  |
| CC(C)CC(=O)OC[C@H]1O[C@@](C#N)(c2ccc3c(N)ncnn23)[C@H](O)[C@@H]1O [Compound 9, ((2R,3S,4R,5R)-5-(4-aminopyrrolo[2,1-f][1,2,4]triazin-7-yl)-5-cyano-3,4-dihydroxytetrahydrofuran-2-yl)methyl 3-methylbutanoate] | 3 | 4.7 | 1.6 |  |  |  |
| N#C[C@@]1(c2ccc3c(N)ncnn23)O[C@H](COC(=O)CC2CCCCC2)[C@@H](O)[C@H]1O [Compound 10, ((2R,3S,4R,5R)-5-(4-aminopyrrolo[2,1-f][1,2,4]triazin-7-yl)-5-cyano-3,4-dihydroxytetrahydrofuran-2-yl)methyl 2-cyclohexylacetate] | 3 | 4.7 | 1.6 |  |  |  |
| CC(C)[C@H](N)C(=O)OC[C@H]1O[C@@](C#N)(c2ccc3c(N)ncnn23)[C@H](O)[C@@H]1O [Compound 11, ((2R,3S,4R,5R)-5-(4-aminopyrrolo[2,1-f][1,2,4]triazin-7-yl)-5-cyano-3,4-dihydroxytetrahydrofuran-2-yl)methyl L-valinate] | 0.4 | 0.1 | 0.4 |  |  |  |
| N#C[C@@]1(c2ccc3c(N)ncnn23)O[C@H](COC(=O)Cc2ccccc2)[C@@H](O)[C@H]1O [Compound 12, ((2R,3S,4R,5R)-5-(4-aminopyrrolo[2,1-f][1,2,4]triazin-7-yl)-5-cyano-3,4-dihydroxytetrahydrofuran-2-yl)methyl 2-phenylacetate] |  |  |  | 3 | 8.9 | 3 |
| CC(=O)OC[C@H]1O[C@@](C#N)(c2ccc3c(N)ncnn23)[C@H](O)[C@@H]1O [Compound 13, ((2R,3S,4R,5R)-5-(4-aminopyrrolo[2,1-f][1,2,4]triazin-7-yl)-5-cyano-3,4-dihydroxytetrahydrofuran-2-yl)methyl acetate] | 0.2 | 0.6 | 2.7 |  |  |  |
| CC(C)C(=O)OC[C@H]1O[C@@](C#N)(c2ccc3c(N)ncnn23)[C@H](O)[C@@H]1O [Compound 14, ((2R,3S,4R,5R)-5-(4-aminopyrrolo[2,1-f][1,2,4]triazin-7-yl)-5-cyano-3,4-dihydroxytetrahydrofuran-2-yl)methyl isobutyrate] | 2.3 | 2.2 | 1 |  |  |  |
| CCC(=O)OC[C@H]1O[C@@](C#N)(c2ccc3c(N)ncnn23)[C@H](O)[C@@H]1O [Compound 15, ((2R,3S,4R,5R)-5-(4-aminopyrrolo[2,1-f][1,2,4]triazin-7-yl)-5-cyano-3,4-dihydroxytetrahydrofuran-2-yl)methyl propionate] |  |  |  | 2.9 | 7 | 3.4 |
| CC(C)CC(=O)OC[C@H]1O[C@@](C#N)(c2ccc3c(N)ncnn23)[C@H](O)[C@@H]1OC(=O)CC(C)C [Compound 17, (2R,3S,4R,5R)-5-(4-aminopyrrolo[2,1-f][1,2,4]triazin-7-yl)-5-cyano-4-hydroxy-2-(((3-methylbutanoyl)oxy)methyl)tetrahydro furan-3-yl 3-methylbutanoate] | 15 | 21 | 1.4 |  |  |  |
| CC(C)CC(=O)OC[C@H]1O[C@@](C#N)(c2ccc3c(N)ncnn23)[C@H](O)[C@@H]1OC(=O)CC1CCCCC1 [Compound 18, ((2R,3S,4R,5R)-5-(4-aminopyrrolo[2,1-f][1,2,4]triazin-7-yl)-5-cyano-3-(2-cyclohexylacetoxy)-4-hydroxytetrahydrofuran-2-yl)methyl 3-methylbutanoate] | 16 | 8.8 | 0.6 |  |  |  |
| CC(C)CC(=O)OC[C@H]1O[C@@](C#N)(c2ccc3c(N)ncnn23)[C@H](O)[C@@H]1OC(=O)Cc1ccccc1 [Compound 20, ((2R,3S,4R,5R)-5-(4-aminopyrrolo[2,1-f][1,2,4]triazin-7-yl)-5-cyano-4-hydroxy-3-(2-phenylacetoxy)tetrahydrofuran-2-yl)methyl 3-methylbutanoate] |  |  |  | 10 | 9.8 | 1 |
| CC(C)CC(=O)OC[C@H]1O[C@@](C#N)(c2ccc3c(N)ncnn23)[C@H](O)[C@@H]1OC(=O)C(C)C [Compound 22, ((2R,3S,4R,5R)-5-(4-aminopyrrolo[2,1-f][1,2,4]triazin-7-yl)-5-cyano-4-hydroxy-3-(isobutyryloxy)tetrahydrofuran-2-yl)methyl 3-methylbutanoate] | 7 | 10 | 1.5 |  |  |  |
| CCC(=O)O[C@H]1[C@@H](O)[C@](C#N)(c2ccc3c(N)ncnn23)O[C@@H]1COC(=O)CC(C)C [Compound 23, ((2R,3S,4R,5R)-5-(4-aminopyrrolo[2,1-f][1,2,4]triazin-7-yl)-5-cyano-4-hydroxy-3-(propionyloxy)tetrahydrofuran-2-yl)methyl 3-methylbutanoate] | 6.3 | 8.1 | 1.3 |  |  |  |
| CC(C)CC(=O)OC[C@H]1O[C@@](C#N)(c2ccc3c(N)ncnn23)[C@H](O)[C@@H]1OCOC(=O)C(C)(C)C [Compound 24, ((2R,3S,4R,5R)-5-(4-aminopyrrolo[2,1-f][1,2,4]triazin-7-yl)-5-cyano-4-hydroxy-3-((pivaloyloxy)methoxy)tetrahydrofuran-2-yl)methyl 3-methylbutanoate] | 8.1 | 3.6 | 0.44 |  |  |  |
| CC(C)CC(=O)O[C@H]1[C@@H](O)[C@](C#N)(c2ccc3c(N)ncnn23)O[C@@H]1COC(=O)CC1CCCCC1 [Compound 25, (2R,3S,4R,5R)-5-(4-aminopyrrolo[2,1-f][1,2,4]triazin-7-yl)-5-cyano-2-((2-cyclohexylacetoxy)methyl)-4-hydroxytetrahydrofuran-3-yl 3-methylbutanoate] | 56 | 42 | 0.7 |  |  |  |
| CC(C)[C@H](N)C(=O)O[C@H]1[C@@H](O)[C@](C#N)(c2ccc3c(N)ncnn23)O[C@@H]1COC(=O)CC1CCCCC1 [Compound 27, (2R,3S,4R,5R)-5-{4-aminopyrrolo[2,1-f][1,2,4]triazin-7-yl}-5-cyano-2-{[(2-cyclohexylacetyl)oxy]methyl}-4-hydroxyoxolan-3-yl (2S)-2-amino-3-methylbutanoate] | 0.1 | 9.9 | 100 |  |  |  |
